Series [1] deals with Rop7-III CD8 T cells. Put plainly: T-cell proliferation (CFSE dilution) with peptide-loaded BMDC. The class given is cell-based, mouse. As to conditions: 1 or 0.01 µg/ml, 3 days. The source says:
(§1) Figure 4. Rop7 CD8 T cells proliferation and cytokine secretion upon Rop7 peptide variant stimulation. Sorted CD8^+ tetramer^+ T cells from pooled lymph nodes and spleen of Rop7-I, -II or -III heterozygous mice were labelled with CFSE and stimulated with BMDC loaded with Rop7 peptide variants at indicated concentrations. (a) Histograms show CFSE dilution on sorted CD8 T cells from Rop7-I, -II or -III mice stimulated with IPAAAGRFF peptide-loaded BMDC after 3 days of stimulation. (b) IL-2, TNFα and IFNγ concentration measured in culture supernatant after 3 days of stimulation. Mean of three technical replicates (T-cell stimulation). Error bars: standard deviation (n = 3). Representative of three independent experiments. (c) Bar histograms show the percentage of living cells (Zombie Aqua negative) after 3 days of stimulation with IPAAAGRFF-loaded BMDC. Mean of three technical replicates (T-cell stimulation). Error bars: standard deviation (n = 3). Representative of three independent experiments. (d) Histograms show CFSE dilution on sorted CD8 T cells from Rop7-I or -II heterozygous mice stimulated with IPANAGRFF peptide-loaded BMDC after 3 days of stimulation. (e) IL-2, TNFα and IFNγ concentration measured in culture supernatant after 3 days of stimulation. Mean of three technical replicates (T-cell stimulation). Error bars: standard deviation (n = 3). Representative of three independent experiments. (f) Bar histograms show the percentage of living cells (Zombie Aqua negative) after 3 days of stimulation with IPANAGRFF-loaded BMDC. *p < 0.05, **p < 0.01, ***p < 0.001 (Student's t-test).
(§2) Anti-CD3/28: plate-bound anti-CD3 (clone 17A2) and anti-CD28 (clone 37.51) at indicated concentrations in flat bottom 96-well plates in the presence of 10 ng ml^–1 recombinant mouse IL-2 when specified. BMDC: dendritic cells differentiated from bone marrow progenitors for 5–7 days in GM-CSF and IL-4 containing medium loaded with Rop7 peptide (final concentration 1 or 0.01 µg ml^−1). When indicated, 10–20 × 10^6 cells per millilitre were labelled in PBS 2.5 µM CFSE for 2 min at room temperature.

Series [2] has as its system Rop7-I CD8 T cells. Described as above. The class given is cell-based, mouse. As to conditions: 1 or 0.01 µg/ml, 3 days.
Text: as §1, §2

Series [3] concerns Rop7-II CD8 T cells. The series is described as above. Type of series: cell-based, mouse. As to conditions: 1 or 0.01 µg/ml, 3 days.
Text: as §1, §2

Series [4] has as its system Rop7-III CD8 T cells. Nature of the series: Cytokine secretion with peptide-loaded BMDC. Type of series: cell-based, mouse. Conditions: 1 or 0.01 µg/ml, supernatant after 3 days, ELISA or multiplex, n = 3 technical replicates.
Text: as §1
(§3) Cytokine concentrations were measured by ELISA according to the manufacturer's instructions or by multiplex assay (Eve Technologies, Calgary, Alberta, Canada).
A general note: In an ELISA, binding on a coated surface is turned into a signal by an enzyme label.

Series [5] concerns Rop7-II CD8 T cells. Nature of the series: Cytokine secretion with peptide-loaded BMDC. The class given is cell-based, mouse. As to conditions: 1 or 0.01 µg/ml, supernatant after 3 days, ELISA or multiplex, n = 3 technical replicates.
Text: as §1, §3

The subject of series [6] is Rop7 CD8 T cells. As to conditions: BMDC loaded with Rop7 peptide 1 µg/ml, 72 h, then peptide-loaded target splenocytes 16–20 h.
Protocol: A measure of 1–2 × 10^5 sorted CD4^+ or CD8^+ tetramers^+ cells from pooled spleen and lymph nodes of Rop7-I, -II or -III mice were stimulated in complete RPMI in 96-well round bottom plates together with 0.5 × 10^5 Rop7 peptide-loaded BMDC (final concentration 1 µg ml^−1). After 72 h, cells were harvested and incubated with 10^5 total cells of a 1 to 1 mixture of CFSE-labelled, Rop7 peptide-loaded CD45.1 BALB/c splenocytes (final concentration 1 µg ml^−1) and control, CFSE-labelled, DMSO-treated CD45.2 BALB/c splenocytes in 96-well round bottom plates. After 16–20 h the ratio of living (propidium iodide negative) CD45.1 versus CD45.2 cells was determined by flow cytometry.
Series [7] deals with Rop7-II CD8 T cells. Nature of the series: T-cell viability (Zombie Aqua) with peptide-loaded BMDC. Conditions: 3 days. Type of series: cell-based, mouse.
Text: as §1, with “Representative of three independent experiments. (f) Bar histograms show the percentage of living cells (Zombie Aqua negative) after 3 days of stimulation with IPANAGRFF-loaded BMDC. *p < 0.05, **p < 0.01, ***p < 0.001 (Student's t-test).” left out

In series [8] the test system is CD8 T cells from Rop7-I mice. Nature of the series: Peptide-loaded H-2 L^d tetramer staining. Type of series: cell-based, mouse. Conditions: caged tetramer approach, H-2 L^d tetramers loaded with peptide, splenocytes, flow cytometry. The procedure:
(§4) Figure 2. Binding of Rop7-I, -II and -III to Rop7 peptide variants. (a) Splenocytes from WT or Rop7-I, -II and -III heterozygous mice were stained for CD8 and with H-2 L^d tetramers loaded with the indicated peptides. Histograms show H-2 L^d-Rop7 variants staining on CD8 T cells from WT or Rop7 mice. (b) TCRs from Rop7-I, -II and -III T cells were recombinantly expressed and refolded. Binding affinities for IPAAAGRFF-, IPAFAGRFF- and IPANAGRFF-loaded H-2 L^d were measured with a BIAcore 3000 and analysed using an equilibrium model. The raw data (black lines), fits (red lines) and calculated dissociation constant are shown in each panel.
(§5) Purified anti-CD3 (clone 17A2) and anti-CD28 (clone 37.51) antibodies, fluorescently labelled Granzyme B (clone 16G6), CD3ɛ (clone 145-2C11), CD4 (clone GK1.5), CD8 (clone 53-6.7), CD45.1 (clone A20) specific antibodies were purchased from eBioscience. Biotinylated anti-CD4 (clone GK1.5), anti-CD19 (clone 1D3), fluorescently labelled CD25 (clone 7D4), CD44 (clone 1M7), CD69 (clone H1.2F3), TNFα (clone MP6-XT22) and actin (clone ab-5) specific antibodies were purchased from BD Biosciences. Fluorescently labelled CD5 (clone 53-7.3), CD28 (clone E18), CD62 L (clone mel-14), Ki-67 (clone 16A8) specific antibodies and Zombie Aqua (cat. no. 423101) were purchased from Biolegend. Fluorescently labelled anti-IFNγclone 9004) was purchased from Sigma. Anti-phospho-tyrosine residue (clone 4G10) was purchased from Millipore. Anti-phopho-ERK (Thr202/Tyr204) (D13.14.4E, cat. no. 4370) and anti-phospho-S6 (Ser235/236) (D57.2.2E, cat. no. 4858) were purchased from Cell Signalling Technology. Horseradish peroxidase-conjugated anti-mouse antibody was purchased from GE Healthcare (cat. no. NXA931). Horseradish peroxidase-conjugated goat anti-rabbit antibody was purchased from Southern Biotech (cat. no. 4041-05). CD8 T cells isolation kit (130-095-236) and anti-biotin beads (130-090-485) were purchased from Miltenyi and used according to the manufacturer's instructions. ELISA kits for the detection of mouse IL-2 (cat. no. 431001), IFNγ (cat. no. 430801) and TNFα (cat. no. 430901) were purchased from BioLegend. ELISA for mouse IgM (cat. no. 88-50470-22) and IgG (cat. no. 88-50400-22) were purchased from Ebioscience. Recombinant mouse GM-CSF (cat. no. 315-03), IL-2 (212-12) and IL-4 (cat. no. 214-14) were purchased from Peprotech. Carboxyfluorescein succinimidyl ester (CFSE) was purchased from Sigma (cat. no. 21888). Protease inhibitor cocktail was purchased from Roche (cat. no. 11836153001). H-2 L^d tetramers were produced and used as described elsewhere or obtained from the NIH tetramer facility. All peptides were produced by the MIT biopolymer facility through standard solid-phase peptide synthesis or purchased from Pepceuticals, UK.

The subject of series [9] is CD8 T cells from Rop7-III mice. Nature of the series: Peptide-loaded H-2 L^d tetramer staining. The class given is cell-based, mouse. Conditions: caged tetramer approach, H-2 L^d tetramers loaded with peptide, splenocytes, flow cytometry. The procedure:
as §4, §5

The subject of series [10] is CD8 T cells from Rop7-II mice. Nature of the series: Peptide-loaded H-2 L^d tetramer staining. As to conditions: caged tetramer approach, H-2 L^d tetramers loaded with peptide, splenocytes, flow cytometry. The class given is cell-based, mouse. The method, then:
as §4, §5
In general terms: A flow cytometer gives signals particle by particle.

The target of series [11] is Rop7-III TCR. Nature of the series: SPR affinity of H-2 L^d-peptide complexes for immobilised recombinant Rop7-III TCR (BIAcore 3000). Type of series: binding, mouse. Conditions: peptide loaded in H-2 L^d as analyte, 1 to 200 µM, 25°C, biotinylated TCR on streptavidin CM5 chip, equilibrium model, at least duplicates; read-out: dissociation constant Kd. The method, then: as §4
For the Rop7-I, -II and -III TCRs, the α and β chains were cloned individually in the bacterial expression vector pET28a. Residues threonine 46 of the α chain's and serine 57 of the β chain's constant regions were mutated to cysteine to enable non-native disulfide bridge formation within the heterodimer complex. A biotinylation sequence was introduced at the C terminus of the β chain. The chains were separately expressed in Escherichia coli. BL21-DE3 (pLysS) and obtained as inclusion bodies and dissolved in 8 M urea, 25 mM MES, 1 mM EDTA, 1 mM DTT at pH 6.0. […] The final response was calculated after subtracting the control cell response. […] Equilibrium Kd values were calculated by nonlinear curve fitting of background-subtracted data using PRISM software.
For orientation: In SPR one partner is held on a chip, and binding of the other changes the refractive index at the surface.

Entries after “also recorded” stand apart in the source; their conditions may differ. Bounds are passed on as bounds.

As for “IPAAAGRFF [peptide … derived from the Rop7 protein of Toxoplasma gondii]”, the proliferation result in series [1], in [2] and in [3] was “able to proliferate upon antigenic stimulation in a dose-dependent manner” each time. Moreover, the “IL-2, TNFα and IFNγ production” value in series [4] is “secreted increased amounts of IL-2 and IFNγ but not TNFα when compared with Rop7-I; also recorded: produced significantly more IL-2 and IFNγ, but not TNFα, compared with Rop7-I CD8 T cells”; in [5], “produced overall less IL-2, TNFα and IFNγ; also recorded: secreted significantly fewer cytokines compared with Rop7-I and -III CD8 T cells”. The cytotoxicity result in series [6] is “all Rop7 CD8 T cells were cytotoxic, albeit with subtle but notable differences”. Also, the “cell death / living cells” value in series [7] was “significantly increased tendency to cell death at a lower degree of stimulation; also recorded: an increased proportion of cells died as the strength of stimulus decreased”. For the same sequence, the tetramer binding entry in series [8] is “bound tetramers loaded with the nominal antigen (IPAAAGRFF), with little quantitative variation”; in series [9], “bound tetramers loaded with the nominal antigen (IPAAAGRFF), with little quantitative variation”; in series [10], “slightly less avid than binding to Rop7-I or -III”.
Turning to IPAFAGRFF, the Kd – broadly, a measure of binding affinity in units of concentration – in series [11] was more than 200 µM. The tetramer binding entry in series [8], in series [9] and in [10] was “only Rop7-II T cells bound” in each case.
On to IPANAGRFF, for which the proliferation entry in [2] and in [3] was “able to proliferate upon stimulation” throughout. Besides, the Kd in series [11] is more than 200 µM. In addition, the “IL-2, TNFα and IFNγ production” value in series [5] is given as “produced significantly fewer cytokines; also recorded: equally poor ability to secrete cytokines”. Further, the “cell death / living cells” value in [7] is on record as “more prone to cell death at both peptide concentrations; also recorded: enhanced cell death compared with Rop7-I CD8 T cells”. Further, the tetramer binding entry in [8] is “Rop7-I and -II, but not Rop7-III T cells bound”; in [9] it was “not Rop7-III T cells bound”; in series [10], “Rop7-I and -II, but not Rop7-III T cells bound”.

The values are drawn from article PMC5133449, “Peripheral self-reactivity regulates antigen-specific CD8 T-cell responses and cell division under physiological conditions” (Open Biology, 2016).
